Our source for the IC50 values is US20260022142A1, “MACROCYCLIC IMMUNOMODULATORS” (Bristol-Myers Squibb Company, priority 2022, published 2026).

Each structure is given as a SMILES string. pIC50: −log10 of the molar value. Bridge positions count the residues as written; N and C are the ends. Square brackets hold non-standard residues; d marks the D form. Peptide text beside a SMILES is read from it. * marks the point of attachment. ξ: configuration not given here. Phe(4-COOH) = N[C@@H](Cc1ccc(C(=O)O)cc1)C(=O)O; Bip = N[C@@H](Cc1ccc(-c2ccccc2)cc1)C(=O)O; Phe(3-Me) = Cc1cccc(C[C@H](N)C(=O)O)c1; Cha = N[C@@H](CC1CCCCC1)C(=O)O; Cit = NC(=O)NCCC[C@H](N)C(=O)O; Carboxymethyl = O=C(O)C*; Orn = NCCC[C@H](N)C(=O)O; Aun = NCCCCCCCCCCC(=O)O; Dab = NCC[C@H](N)C(=O)O; Dap = NC[C@H](N)C(=O)O; AEEA = NCCOCCOCC(=O)O; ξV = CC(C)C(N)C(=O)O

For orientation: pIC50 means the negative decadic logarithm of the IC50, by convention in mol/L.

T1 sequence (Q15116 25-288): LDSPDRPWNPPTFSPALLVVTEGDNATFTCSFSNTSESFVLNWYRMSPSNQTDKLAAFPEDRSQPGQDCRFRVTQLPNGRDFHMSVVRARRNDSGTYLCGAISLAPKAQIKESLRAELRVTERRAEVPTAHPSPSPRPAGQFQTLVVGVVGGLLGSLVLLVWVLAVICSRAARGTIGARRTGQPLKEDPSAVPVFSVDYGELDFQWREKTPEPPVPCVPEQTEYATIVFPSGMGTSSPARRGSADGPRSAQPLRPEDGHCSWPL

The assay has as its target T1, PD-1/PD-L1 interaction (PE-labeled human PD-L1-Ig binding to Jurkat cell line over-expressing human PD-1) (Homo sapiens, UniProt Q15116).
T1 construct: expressed in transfected cells; host or cells: Jurkat
The experiment in a line: Jurkat-PD-1 Cell Binding High-Content Screening Assay (CBA). Type of assay: cell-based. To be noted: Jurkat cell line over-expressing human PD-1; PE-labeled PD-L1-Ig 20 nM final; read-out: Jurkat hPD1-PDL1 IC50. Put shortly:
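Read-out is high-content imaging of cell-bound phycoerythrin-tagged PD-L1-Ig on fixed, Hoechst-counterstained Jurkat cells that over-express human PD-1. Compound exposure lasts 2 h at 37° C before the labeled ligand (20 nM final) is added for a further hour.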
Turning to `CC(C)C[C@@H]1NC(=O)[C@H](Cc2c[nH]c3ccccc23)NC(=O)[C@H](CC(=O)O)NC(=O)[C@H](Cc2ccc(C(=O)O)cc2)NC(=O)[C@H](Cc2ccc(OCC(=O)O)cc2)NC(=O)CSC[C@@H](C(=O)N[C@@H](CCN)C(=O)NCCCCCCCCCCC(=O)O)NC(=O)[C@H](CCCNC(N)=O)NC(=O)[C@H](C(C)C)NC(=O)[C@H](CC2CCCCC2)NC(=O)[C@H](CCN)NC(=O)[C@@H](CC(C)C)NC(=O)[C@H](CCCN)NC(=O)[C@H](Cc2ccc(O)cc2)NC(=O)[C@H](Cc2ccc(-c3ccccc3)cc2)NC1=O` [Compound 1234] ({CH2CO}-Y(Carboxymethyl)[Phe(4-COOH)]DWL[Bip]Y[Orn][dL][Dab][Cha]V[Cit]C[Dab][Aun]-OH; thioether N-14), the negative logarithm of the IC50 (pIC50) is 7.40.
The result for `CC(C)C[C@@H]1NC(=O)[C@H](Cc2c[nH]c3ccccc23)NC(=O)[C@H](CC(=O)O)NC(=O)[C@H](Cc2ccc(C(=O)O)cc2)NC(=O)[C@H](Cc2ccc(OCC(=O)O)cc2)NC(=O)CSC[C@@H](C(=O)N[C@@H](CCCN)C(=O)NCCCCCCCCCCC(=O)O)NC(=O)[C@H](CCCNC(N)=O)NC(=O)[C@H](C(C)C)NC(=O)[C@H](CC2CCCCC2)NC(=O)[C@H](CCN)NC(=O)[C@@H](CC(C)C)NC(=O)[C@H](CCCN)NC(=O)[C@H](Cc2ccc(O)cc2)NC(=O)[C@H](Cc2ccc(-c3ccccc3)cc2)NC1=O` [Compound 1235] ({CH2CO}-Y(Carboxymethyl)[Phe(4-COOH)]DWL[Bip]Y[Orn][dL][Dab][Cha]V[Cit]C[Orn][Aun]-OH; thioether N-14) reads 7.49; that for `CC(C)C[C@@H]1NC(=O)[C@H](Cc2c[nH]c3ccccc23)NC(=O)[C@H](CC(=O)O)NC(=O)[C@H](Cc2ccc(C(=O)O)cc2)NC(=O)[C@H](Cc2ccc(OCC(=O)O)cc2)NC(=O)CSC[C@@H](C(=O)N[C@@H](CCCCN)C(=O)NCCCCCCCCCCC(=O)O)NC(=O)[C@H](CCCNC(N)=O)NC(=O)[C@H](C(C)C)NC(=O)[C@H](CC2CCCCC2)NC(=O)[C@H](CCN)NC(=O)[C@@H](CC(C)C)NC(=O)[C@H](CCCN)NC(=O)[C@H](Cc2ccc(O)cc2)NC(=O)[C@H](Cc2ccc(-c3ccccc3)cc2)NC1=O` [Compound 1236] ({CH2CO}-Y(Carboxymethyl)[Phe(4-COOH)]DWL[Bip]Y[Orn][dL][Dab][Cha]V[Cit]CK[Aun]-OH; thioether N-14), 7.45.
`CC(C)C[C@@H]1NC(=O)[C@H](Cc2c[nH]c3ccccc23)NC(=O)[C@H](CC(=O)O)NC(=O)[C@H](Cc2ccc(C(=O)O)cc2)NC(=O)[C@H](Cc2ccc(OCC(=O)O)cc2)NC(=O)CSC[C@@H](C(=O)N[C@@H](CCCNC(=N)N)C(=O)NCCCCCCCCCCC(=O)O)NC(=O)[C@H](CCCNC(N)=O)NC(=O)[C@H](C(C)C)NC(=O)[C@H](CC2CCCCC2)NC(=O)[C@H](CCN)NC(=O)[C@@H](CC(C)C)NC(=O)[C@H](CCCN)NC(=O)[C@H](Cc2ccc(O)cc2)NC(=O)[C@H](Cc2ccc(-c3ccccc3)cc2)NC1=O` [Compound 1237] ({CH2CO}-Y(Carboxymethyl)[Phe(4-COOH)]DWL[Bip]Y[Orn][dL][Dab][Cha]V[Cit]CR[Aun]-OH; thioether N-14): the pIC50 is 7.15.
As to `CC(C)C[C@@H]1NC(=O)[C@H](Cc2c[nH]c3ccccc23)NC(=O)[C@H](CC(=O)O)NC(=O)[C@H](Cc2ccc(C(=O)O)cc2)NC(=O)[C@H](Cc2ccc(OCC(=O)O)cc2)NC(=O)CSC[C@@H](C(=O)NCCOCCOCC(=O)NCCCCCCCCCCC(=O)O)NC(=O)[C@H](CN)NC(=O)[C@H](C(C)C)NC(=O)[C@H](CC2CCCCC2)NC(=O)[C@H](CCN)NC(=O)[C@@H](CC(C)C)NC(=O)[C@H](CCCN)NC(=O)[C@H](Cc2ccc(O)cc2)NC(=O)[C@H](Cc2ccc(-c3ccccc3)cc2)NC1=O` [Compound 1238] ({CH2CO}-Y(Carboxymethyl)[Phe(4-COOH)]DWL[Bip]Y[Orn][dL][Dab][Cha]V[Dap]C[AEEA][Aun]-OH; thioether N-14), the pIC50 is 7.41.
The same measure for `CC(C)C[C@@H]1NC(=O)[C@H](Cc2c[nH]c3ccccc23)NC(=O)[C@H](CC(=O)O)NC(=O)[C@H](Cc2ccc(C(=O)O)cc2)NC(=O)[C@H](Cc2ccc(OCC(=O)O)cc2)NC(=O)CSC[C@@H](C(=O)NCCOCCOCC(=O)NCCCCCCCCCCC(=O)O)NC(=O)[C@H](CCN)NC(=O)[C@H](C(C)C)NC(=O)[C@H](CC2CCCCC2)NC(=O)[C@H](CCN)NC(=O)[C@@H](CC(C)C)NC(=O)[C@H](CCCN)NC(=O)[C@H](Cc2ccc(O)cc2)NC(=O)[C@H](Cc2ccc(-c3ccccc3)cc2)NC1=O` [Compound 1239] ({CH2CO}-Y(Carboxymethyl)[Phe(4-COOH)]DWL[Bip]Y[Orn][dL][Dab][Cha]V[Dab]C[AEEA][Aun]-OH; thioether N-14): 7.52; for `CC(C)C[C@@H]1NC(=O)[C@H](Cc2c[nH]c3ccccc23)NC(=O)[C@H](CC(=O)O)NC(=O)[C@H](Cc2ccc(C(=O)O)cc2)NC(=O)[C@H](Cc2ccc(OCC(=O)O)cc2)NC(=O)CSC[C@@H](C(=O)NCCOCCOCC(=O)NCCCCCCCCCCC(=O)O)NC(=O)[C@H](CCCN)NC(=O)[C@H](C(C)C)NC(=O)[C@H](CC2CCCCC2)NC(=O)[C@H](CCN)NC(=O)[C@@H](CC(C)C)NC(=O)[C@H](CCCN)NC(=O)[C@H](Cc2ccc(O)cc2)NC(=O)[C@H](Cc2ccc(-c3ccccc3)cc2)NC1=O` [Compound 1240] ({CH2CO}-Y(Carboxymethyl)[Phe(4-COOH)]DWL[Bip]Y[Orn][dL][Dab][Cha]V[Orn]C[AEEA][Aun]-OH; thioether N-14): 7.69; for `CC(C)C[C@@H]1NC(=O)[C@H](Cc2c[nH]c3ccccc23)NC(=O)[C@H](CC(=O)O)NC(=O)[C@H](Cc2ccc(C(=O)O)cc2)NC(=O)[C@H](Cc2ccc(OCC(=O)O)cc2)NC(=O)CSC[C@@H](C(=O)NCCOCCOCC(=O)NCCCCCCCCCCC(=O)O)NC(=O)[C@H](CCCCN)NC(=O)[C@H](C(C)C)NC(=O)[C@H](CC2CCCCC2)NC(=O)[C@H](CCN)NC(=O)[C@@H](CC(C)C)NC(=O)[C@H](CCCN)NC(=O)[C@H](Cc2ccc(O)cc2)NC(=O)[C@H](Cc2ccc(-c3ccccc3)cc2)NC1=O` [Compound 1241] ({CH2CO}-Y(Carboxymethyl)[Phe(4-COOH)]DWL[Bip]Y[Orn][dL][Dab][Cha]VKC[AEEA][Aun]-OH; thioether N-14): 7.74.
In the case of `CC(C)C[C@@H]1NC(=O)[C@H](Cc2c[nH]c3ccccc23)NC(=O)[C@H](CC(=O)O)NC(=O)[C@H](Cc2ccc(C(=O)O)cc2)NC(=O)[C@H](Cc2ccc(OCC(=O)O)cc2)NC(=O)CSC[C@@H](C(=O)NCCOCCOCC(=O)NCCCCCCCCCCC(=O)O)NC(=O)[C@H](CCCNC(=N)N)NC(=O)[C@H](C(C)C)NC(=O)[C@H](CC2CCCCC2)NC(=O)[C@H](CCN)NC(=O)[C@@H](CC(C)C)NC(=O)[C@H](CCCN)NC(=O)[C@H](Cc2ccc(O)cc2)NC(=O)[C@H](Cc2ccc(-c3ccccc3)cc2)NC1=O` [Compound 1242] ({CH2CO}-Y(Carboxymethyl)[Phe(4-COOH)]DWL[Bip]Y[Orn][dL][Dab][Cha]VRC[AEEA][Aun]-OH; thioether N-14), the pIC50 was 7.48.
The result for `CC(C)C[C@H]1NC(=O)[C@H](CCCN)NC(=O)[C@H](Cc2ccc(O)cc2)NC(=O)[C@H](Cc2ccc(-c3ccccc3)cc2)NC(=O)[C@H](C(C)C)NC(=O)[C@H](Cc2c[nH]c3ccccc23)NC(=O)[C@H](CC(=O)O)NC(=O)[C@H](Cc2ccc(C(=O)O)cc2)NC(=O)[C@H](Cc2ccc(OCC(=O)O)cc2)NC(=O)CSC[C@@H](C(=O)NCCOCCOCC(=O)NCCCCCCCCCCC(=O)O)NC(=O)[C@H](CCCNC(N)=O)NC(=O)C(C(C)C)NC(=O)[C@H](CC2CCCCC2)NC(=O)[C@H](CCN)NC1=O` (stereo partly drawn) [Compound 1243] ({CH2CO}-Y(Carboxymethyl)[Phe(4-COOH)]DWV[Bip]Y[Orn][dL][Dab][Cha][ξV][Cit]C[AEEA][Aun]-OH; thioether N-14) reads 7.93.
The same measure for `Cc1cccc(C[C@@H]2NC(=O)[C@H](CC(=O)O)NC(=O)[C@H](Cc3ccc(OCC(=O)O)cc3)NC(=O)[C@H](CN)NC(=O)CSC[C@@H](C(=O)N[C@@H](CCN)C(=O)NCCCCCCCCCCC(=O)O)NC(=O)[C@H](CCC(N)=O)NC(=O)[C@H](C(C)C)NC(=O)[C@H](CC3CCCCC3)NC(=O)[C@H](CCN)NC(=O)[C@@H](CC(C)C)NC(=O)[C@H](CCCN)NC(=O)[C@H](CCCNC(N)=O)NC(=O)[C@H](Cc3ccc(-c4ccccc4)cc3)NC(=O)[C@H](C(C)C)NC2=O)c1` [Compound 1244] ({CH2CO}-[Dap]Y(Carboxymethyl)D[Phe(3-Me)]V[Bip][Cit][Orn][dL][Dab][Cha]VQC[Dab][Aun]-OH; thioether N-14): 7.79; for `Cc1cccc(C[C@@H]2NC(=O)[C@H](CC(=O)O)NC(=O)[C@H](Cc3ccc(OCC(=O)O)cc3)NC(=O)[C@H](CN)NC(=O)CSC[C@@H](C(=O)N[C@@H](CCN)C(=O)NCCCCCCCCCCC(=O)O)NC(=O)[C@H](CCC(=O)O)NC(=O)[C@H](C(C)C)NC(=O)[C@H](CC3CCCCC3)NC(=O)[C@H](CCN)NC(=O)[C@@H](CC(C)C)NC(=O)[C@H](CCCN)NC(=O)[C@H](Cc3ccc(OCC(=O)O)cc3)NC(=O)[C@H](Cc3ccc(-c4ccccc4)cc3)NC(=O)[C@H](Cc3ccc(OCC(=O)O)cc3)NC2=O)c1` [Compound 1245] ({CH2CO}-[Dap]Y(Carboxymethyl)D[Phe(3-Me)]Y(Carboxymethyl)[Bip]Y(Carboxymethyl)[Orn][dL][Dab][Cha]VEC[Dab][Aun]-OH; thioether N-14): 7.45; for `Cc1cccc(C[C@@H]2NC(=O)[C@H](CC(=O)O)NC(=O)[C@H](Cc3ccc(OCC(=O)O)cc3)NC(=O)[C@H](CN)NC(=O)CSC[C@@H](C(=O)N[C@@H](CCN)C(=O)NCCCCCCCCCCC(=O)O)NC(=O)[C@H](CCC(N)=O)NC(=O)[C@H](C(C)C)NC(=O)[C@H](CC3CCCCC3)NC(=O)[C@H](CCN)NC(=O)[C@@H](CC(C)C)NC(=O)[C@H](CCCN)NC(=O)[C@H](Cc3ccc(OCC(=O)O)cc3)NC(=O)[C@H](Cc3ccc(-c4ccccc4)cc3)NC(=O)[C@H](Cc3ccc(OCC(=O)O)cc3)NC2=O)c1` [Compound 1247] ({CH2CO}-[Dap]Y(Carboxymethyl)D[Phe(3-Me)]Y(Carboxymethyl)[Bip]Y(Carboxymethyl)[Orn][dL][Dab][Cha]VQC[Dab][Aun]-OH; thioether N-14): 7.75.
